Data reported in ChEMBL document CHEMBL1201862, “PubChem BioAssay data set” (2004).
The source made the active and inactive calls.

Tests used:
[1] = Counterscreen for IDE inhibitors: Luminescence-based cell-based high throughput dose response assay to identify compounds that are cytotoxic to HEK cells. [Related pubchem assays: 434962 (Primary screen (IDE inhibitors in singlicate)), 449730 (Counterscreen (Cytotoxicity in triplicate)), 435028 (Confirmation (IDE inhibitors in triplicate)) …; assay type: functional; conditions: HEK293
Streptokinase A = target: T1, Streptokinase A (Streptococcus pyogenes serotype M1, UniProt P10520); assay: S. pyogenes streptokinase expression inhibitors, potency, dose response, plasminogen activation absorbance, OD405 (AID 1914); assay type: functional, Streptococcus pyogenes M1 GAS;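 also: secreted streptokinase activity via plasminogen activation per viability signal from cell pellet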
T1 sequence (P10520 whole entry): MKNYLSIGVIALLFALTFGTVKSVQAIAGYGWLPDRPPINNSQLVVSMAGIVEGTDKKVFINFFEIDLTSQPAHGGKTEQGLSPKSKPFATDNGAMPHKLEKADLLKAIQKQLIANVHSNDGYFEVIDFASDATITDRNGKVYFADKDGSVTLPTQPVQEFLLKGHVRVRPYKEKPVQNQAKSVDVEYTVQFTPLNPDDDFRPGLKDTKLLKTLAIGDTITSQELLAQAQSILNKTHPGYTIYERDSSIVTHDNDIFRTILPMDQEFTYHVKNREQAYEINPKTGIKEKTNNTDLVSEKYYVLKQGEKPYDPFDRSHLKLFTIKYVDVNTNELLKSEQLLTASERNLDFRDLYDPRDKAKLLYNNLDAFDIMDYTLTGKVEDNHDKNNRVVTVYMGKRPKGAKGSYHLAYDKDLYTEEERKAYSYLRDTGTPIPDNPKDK

Streptococcus = assay: Group A Streptococcus viability loss, dose response, counter-screen for streptokinase expression inhibitor project, luminescence, BacTiterGlo (AID 1915); assay type: functional, organism-based;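 also: potency for reduction of bacterial viability or growth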
[2] = test system: Streptococcus sp. 'group A'; assay: growth inhibition of control SK(-) GAS strain, dose response, counter-screen for streptokinase expression inhibitor project, luminescence, kanamycin, BacTiterGlo, confirmation (AID 1900); assay type: functional, organism-based
Insulin-degrading enzyme = target: T2, Insulin-degrading enzyme (Homo sapiens, UniProt P14735); assay: Dose Response: Fluorescence polarization-based cell-based high throughput dose response assay for inhibitors of insulin-degrading enzyme (IDE). [Related pubchem assays: 434962 (Primary screen (IDE inhibitors in singlicate)), 449730 (Counterscreen (Cytotoxicity in triplicate)), 435028 (Confirmation (IDE inhibitors in triplicate)), 434984 (Summary …; assay type: functional
T2 sequence (P14735 whole entry): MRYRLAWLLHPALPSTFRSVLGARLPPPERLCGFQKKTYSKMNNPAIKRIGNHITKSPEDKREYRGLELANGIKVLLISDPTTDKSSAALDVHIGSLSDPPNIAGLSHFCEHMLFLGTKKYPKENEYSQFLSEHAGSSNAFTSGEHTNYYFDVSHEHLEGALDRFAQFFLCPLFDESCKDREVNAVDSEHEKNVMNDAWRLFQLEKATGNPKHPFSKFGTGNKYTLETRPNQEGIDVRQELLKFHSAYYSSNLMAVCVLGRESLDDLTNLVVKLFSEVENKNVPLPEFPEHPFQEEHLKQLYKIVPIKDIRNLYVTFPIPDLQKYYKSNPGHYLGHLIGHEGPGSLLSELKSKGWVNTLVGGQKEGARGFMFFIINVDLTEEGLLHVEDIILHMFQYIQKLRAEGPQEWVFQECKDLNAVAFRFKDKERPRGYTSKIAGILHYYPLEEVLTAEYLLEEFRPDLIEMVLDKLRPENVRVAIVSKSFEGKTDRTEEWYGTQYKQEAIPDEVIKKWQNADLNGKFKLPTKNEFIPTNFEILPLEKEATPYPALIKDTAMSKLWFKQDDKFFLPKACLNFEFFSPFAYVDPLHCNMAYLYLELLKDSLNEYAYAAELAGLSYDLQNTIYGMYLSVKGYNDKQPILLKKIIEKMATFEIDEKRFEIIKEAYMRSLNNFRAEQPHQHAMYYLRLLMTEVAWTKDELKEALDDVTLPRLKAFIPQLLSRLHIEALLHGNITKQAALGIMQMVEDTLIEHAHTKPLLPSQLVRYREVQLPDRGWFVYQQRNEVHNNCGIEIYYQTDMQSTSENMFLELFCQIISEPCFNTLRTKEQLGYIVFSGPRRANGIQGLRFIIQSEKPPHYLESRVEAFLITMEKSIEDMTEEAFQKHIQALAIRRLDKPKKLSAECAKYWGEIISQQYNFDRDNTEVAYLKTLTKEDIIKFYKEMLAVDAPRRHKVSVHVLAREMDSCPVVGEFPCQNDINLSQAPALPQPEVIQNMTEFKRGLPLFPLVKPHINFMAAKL

HeLa = assay: HeLa cell cytotoxicity, dose response, cytotoxicity control, 24 h, cherry-picked samples (AID 504726); assay type: functional, cell-based; conditions: Homo sapiens;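 also: potency for cytotoxicity as loss of luminescence signal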
[3] = target: Voltage-dependent T-type calcium channel subunit alpha-1H (Homo sapiens, UniProt O95180); assay type: functional;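 also: channel activity triggered by adding a high calcium stimulation buffer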
Voltage-dependent T-type calcium channel subunit alpha-1H, sequence (O95180 whole entry): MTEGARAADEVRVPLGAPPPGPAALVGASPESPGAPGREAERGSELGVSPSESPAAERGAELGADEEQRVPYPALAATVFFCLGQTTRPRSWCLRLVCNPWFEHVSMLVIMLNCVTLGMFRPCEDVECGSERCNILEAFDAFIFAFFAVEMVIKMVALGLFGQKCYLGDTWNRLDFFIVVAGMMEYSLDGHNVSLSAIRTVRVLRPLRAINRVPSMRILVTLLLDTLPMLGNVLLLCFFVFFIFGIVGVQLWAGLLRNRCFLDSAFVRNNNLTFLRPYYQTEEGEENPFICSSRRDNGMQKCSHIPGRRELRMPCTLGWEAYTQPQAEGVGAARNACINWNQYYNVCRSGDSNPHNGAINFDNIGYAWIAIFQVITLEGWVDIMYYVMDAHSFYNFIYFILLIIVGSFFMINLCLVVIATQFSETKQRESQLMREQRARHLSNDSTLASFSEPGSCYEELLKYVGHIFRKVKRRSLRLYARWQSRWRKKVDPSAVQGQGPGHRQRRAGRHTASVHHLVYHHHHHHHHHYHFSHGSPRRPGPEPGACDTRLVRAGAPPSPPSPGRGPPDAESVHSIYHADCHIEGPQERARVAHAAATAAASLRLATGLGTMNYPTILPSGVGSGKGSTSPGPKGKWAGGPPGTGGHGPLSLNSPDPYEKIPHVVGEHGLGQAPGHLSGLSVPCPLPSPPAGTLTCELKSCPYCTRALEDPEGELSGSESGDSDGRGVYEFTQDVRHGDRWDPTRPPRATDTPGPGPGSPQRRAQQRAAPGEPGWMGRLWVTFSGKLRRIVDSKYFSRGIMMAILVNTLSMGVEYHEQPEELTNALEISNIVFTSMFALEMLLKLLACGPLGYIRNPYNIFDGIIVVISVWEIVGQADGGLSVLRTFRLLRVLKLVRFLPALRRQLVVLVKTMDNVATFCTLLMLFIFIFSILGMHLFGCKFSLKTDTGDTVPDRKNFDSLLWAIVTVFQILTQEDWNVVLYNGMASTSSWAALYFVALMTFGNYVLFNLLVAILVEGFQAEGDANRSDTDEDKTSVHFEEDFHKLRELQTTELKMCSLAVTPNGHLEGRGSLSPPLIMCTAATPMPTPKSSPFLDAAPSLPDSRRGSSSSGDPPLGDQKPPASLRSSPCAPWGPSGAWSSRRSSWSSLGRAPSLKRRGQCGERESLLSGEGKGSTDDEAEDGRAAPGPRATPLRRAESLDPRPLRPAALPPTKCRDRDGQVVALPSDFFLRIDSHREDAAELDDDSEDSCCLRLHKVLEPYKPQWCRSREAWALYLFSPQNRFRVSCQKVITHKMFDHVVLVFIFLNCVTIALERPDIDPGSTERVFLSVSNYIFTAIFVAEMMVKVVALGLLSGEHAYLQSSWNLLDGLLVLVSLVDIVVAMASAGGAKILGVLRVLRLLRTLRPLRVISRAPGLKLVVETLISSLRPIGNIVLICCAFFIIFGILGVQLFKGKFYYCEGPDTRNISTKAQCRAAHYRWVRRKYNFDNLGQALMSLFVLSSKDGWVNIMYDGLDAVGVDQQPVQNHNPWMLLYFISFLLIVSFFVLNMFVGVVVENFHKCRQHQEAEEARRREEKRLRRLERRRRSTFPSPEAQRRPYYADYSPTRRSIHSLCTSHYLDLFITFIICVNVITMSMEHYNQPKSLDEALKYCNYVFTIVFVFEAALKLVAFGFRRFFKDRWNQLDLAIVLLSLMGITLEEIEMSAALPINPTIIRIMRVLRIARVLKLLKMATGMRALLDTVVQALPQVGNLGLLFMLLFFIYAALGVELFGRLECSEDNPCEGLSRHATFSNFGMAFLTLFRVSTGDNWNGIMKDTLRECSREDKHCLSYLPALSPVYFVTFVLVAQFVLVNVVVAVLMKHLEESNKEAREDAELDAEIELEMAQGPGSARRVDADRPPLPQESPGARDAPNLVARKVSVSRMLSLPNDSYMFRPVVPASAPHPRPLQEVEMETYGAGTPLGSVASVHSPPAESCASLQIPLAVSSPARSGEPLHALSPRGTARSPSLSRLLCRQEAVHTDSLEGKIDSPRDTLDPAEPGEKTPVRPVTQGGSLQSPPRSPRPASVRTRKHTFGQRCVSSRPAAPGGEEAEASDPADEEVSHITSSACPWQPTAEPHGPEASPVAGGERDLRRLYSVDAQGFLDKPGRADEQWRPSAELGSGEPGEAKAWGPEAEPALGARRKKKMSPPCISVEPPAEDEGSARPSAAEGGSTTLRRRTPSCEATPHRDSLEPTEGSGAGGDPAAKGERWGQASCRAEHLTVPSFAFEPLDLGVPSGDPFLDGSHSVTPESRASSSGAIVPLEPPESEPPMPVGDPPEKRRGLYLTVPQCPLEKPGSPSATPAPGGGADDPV

Aspartyl aminopeptidase = target: T3, Aspartyl aminopeptidase (Plasmodium falciparum 3D7, UniProt Q8I2J3)
T3 sequence (Q8I2J3 whole entry): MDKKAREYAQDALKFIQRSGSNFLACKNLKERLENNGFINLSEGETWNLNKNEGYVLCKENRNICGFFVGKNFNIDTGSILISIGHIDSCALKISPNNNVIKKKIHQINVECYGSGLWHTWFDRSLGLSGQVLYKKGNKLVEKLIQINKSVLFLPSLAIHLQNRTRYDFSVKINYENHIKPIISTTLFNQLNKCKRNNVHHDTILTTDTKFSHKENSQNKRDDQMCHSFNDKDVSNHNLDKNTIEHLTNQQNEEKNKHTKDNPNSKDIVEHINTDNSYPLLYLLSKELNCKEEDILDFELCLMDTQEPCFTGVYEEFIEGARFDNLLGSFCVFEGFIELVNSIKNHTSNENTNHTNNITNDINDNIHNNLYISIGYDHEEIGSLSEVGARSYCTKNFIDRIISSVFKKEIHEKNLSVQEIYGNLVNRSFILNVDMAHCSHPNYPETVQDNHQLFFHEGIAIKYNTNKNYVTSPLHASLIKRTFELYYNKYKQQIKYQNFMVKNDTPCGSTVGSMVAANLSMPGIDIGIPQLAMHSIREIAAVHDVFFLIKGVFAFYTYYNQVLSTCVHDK

Procathepsin L = Procathepsin L (Homo sapiens, UniProt P07711)
Procathepsin L, sequence (P07711 whole entry): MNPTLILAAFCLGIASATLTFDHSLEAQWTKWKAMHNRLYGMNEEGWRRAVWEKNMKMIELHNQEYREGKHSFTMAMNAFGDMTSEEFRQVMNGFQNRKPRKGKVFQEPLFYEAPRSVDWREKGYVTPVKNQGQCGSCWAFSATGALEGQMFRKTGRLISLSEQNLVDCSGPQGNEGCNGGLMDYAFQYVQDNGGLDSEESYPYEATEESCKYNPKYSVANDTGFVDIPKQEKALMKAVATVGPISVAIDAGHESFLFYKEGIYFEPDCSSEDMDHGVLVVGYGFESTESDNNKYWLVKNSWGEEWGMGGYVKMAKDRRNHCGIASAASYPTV

[4] = A cytotoxicity screen of small molecule inhibitors of the PhoP region in Salmonella typhi identified in the primary screen. [Related pubchem assays: 1850, 1864, 1985 ]; assay type: functional
[5] = target: T4, Ubiquitin-conjugating enzyme E2 N (Homo sapiens, UniProt P61088); assay type: functional;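 also: Dose-response confirmation in a TR-FRET assay detecting UBC13-driven polyubiquitin chain formation, inhibition measured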
T4 sequence (P61088 whole entry): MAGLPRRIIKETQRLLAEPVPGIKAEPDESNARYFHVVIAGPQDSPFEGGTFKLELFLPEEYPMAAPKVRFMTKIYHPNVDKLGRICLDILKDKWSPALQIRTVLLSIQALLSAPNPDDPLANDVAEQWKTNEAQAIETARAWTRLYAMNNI

Protein RecA = target: T5, Protein RecA (Mycobacterium tuberculosis, UniProt P9WHJ3); assay: Fluorescence Cell-Free Homogeneous Dose Retest to Identify Inhibitors of RecA-Intein Splicing Activity. [Related pubchem assays (depositor defined):AID2097, AID2223, AID489010, AID492950]; assay type: functional
T5 sequence (P9WHJ3 whole entry): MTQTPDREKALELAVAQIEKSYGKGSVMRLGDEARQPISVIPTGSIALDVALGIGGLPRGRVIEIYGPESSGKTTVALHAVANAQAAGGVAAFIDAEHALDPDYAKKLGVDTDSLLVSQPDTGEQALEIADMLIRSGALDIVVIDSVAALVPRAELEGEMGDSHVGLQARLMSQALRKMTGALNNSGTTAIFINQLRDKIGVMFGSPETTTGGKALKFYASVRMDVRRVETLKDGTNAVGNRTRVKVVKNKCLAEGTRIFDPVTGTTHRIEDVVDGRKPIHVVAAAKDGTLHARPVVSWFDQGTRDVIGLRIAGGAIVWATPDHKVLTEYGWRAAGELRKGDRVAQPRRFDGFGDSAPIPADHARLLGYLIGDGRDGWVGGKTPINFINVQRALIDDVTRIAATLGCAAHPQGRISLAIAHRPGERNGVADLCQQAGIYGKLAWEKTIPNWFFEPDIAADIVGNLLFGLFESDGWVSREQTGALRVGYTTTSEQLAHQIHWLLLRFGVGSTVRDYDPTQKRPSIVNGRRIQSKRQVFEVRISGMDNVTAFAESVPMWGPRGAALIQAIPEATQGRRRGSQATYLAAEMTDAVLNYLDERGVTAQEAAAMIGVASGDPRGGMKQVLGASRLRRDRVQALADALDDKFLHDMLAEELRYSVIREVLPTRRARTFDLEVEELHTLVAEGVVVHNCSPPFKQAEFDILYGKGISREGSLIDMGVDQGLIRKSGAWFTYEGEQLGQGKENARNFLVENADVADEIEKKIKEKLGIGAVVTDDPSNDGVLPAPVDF

[6] = target: T6, Microphthalmia-associated transcription factor (Homo sapiens, UniProt O75030); assay: TRPM1 promoter luciferase signal decrease, dose response, MITF inhibitor project, cell-based, SK-MEL-5, cherry-picked, set 3 (AID 493073); assay type: functional
T6 sequence (O75030 whole entry): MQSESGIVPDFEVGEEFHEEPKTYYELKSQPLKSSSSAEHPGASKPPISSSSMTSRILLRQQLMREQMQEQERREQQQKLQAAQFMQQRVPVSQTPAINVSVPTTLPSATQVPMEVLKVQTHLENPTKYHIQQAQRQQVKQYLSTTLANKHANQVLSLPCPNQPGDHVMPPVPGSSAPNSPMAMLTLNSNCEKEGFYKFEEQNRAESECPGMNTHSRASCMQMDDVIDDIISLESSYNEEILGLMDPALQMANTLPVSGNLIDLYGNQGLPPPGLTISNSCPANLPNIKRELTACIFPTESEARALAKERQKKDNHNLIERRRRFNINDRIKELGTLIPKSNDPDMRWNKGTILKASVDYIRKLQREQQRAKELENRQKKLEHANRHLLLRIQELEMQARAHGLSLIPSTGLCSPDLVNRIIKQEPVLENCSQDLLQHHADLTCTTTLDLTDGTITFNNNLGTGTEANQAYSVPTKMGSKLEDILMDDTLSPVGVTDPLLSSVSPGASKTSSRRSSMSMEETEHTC

[7] = target: T7, Replicative DNA helicase DnaB (Mycobacterium tuberculosis, UniProt P9WMR3); assay: DnaB intein splicing inhibitors, dose response, biochemical, cell-free fluorescence (AID 449749); assay type: functional
T7 sequence (P9WMR3 whole entry): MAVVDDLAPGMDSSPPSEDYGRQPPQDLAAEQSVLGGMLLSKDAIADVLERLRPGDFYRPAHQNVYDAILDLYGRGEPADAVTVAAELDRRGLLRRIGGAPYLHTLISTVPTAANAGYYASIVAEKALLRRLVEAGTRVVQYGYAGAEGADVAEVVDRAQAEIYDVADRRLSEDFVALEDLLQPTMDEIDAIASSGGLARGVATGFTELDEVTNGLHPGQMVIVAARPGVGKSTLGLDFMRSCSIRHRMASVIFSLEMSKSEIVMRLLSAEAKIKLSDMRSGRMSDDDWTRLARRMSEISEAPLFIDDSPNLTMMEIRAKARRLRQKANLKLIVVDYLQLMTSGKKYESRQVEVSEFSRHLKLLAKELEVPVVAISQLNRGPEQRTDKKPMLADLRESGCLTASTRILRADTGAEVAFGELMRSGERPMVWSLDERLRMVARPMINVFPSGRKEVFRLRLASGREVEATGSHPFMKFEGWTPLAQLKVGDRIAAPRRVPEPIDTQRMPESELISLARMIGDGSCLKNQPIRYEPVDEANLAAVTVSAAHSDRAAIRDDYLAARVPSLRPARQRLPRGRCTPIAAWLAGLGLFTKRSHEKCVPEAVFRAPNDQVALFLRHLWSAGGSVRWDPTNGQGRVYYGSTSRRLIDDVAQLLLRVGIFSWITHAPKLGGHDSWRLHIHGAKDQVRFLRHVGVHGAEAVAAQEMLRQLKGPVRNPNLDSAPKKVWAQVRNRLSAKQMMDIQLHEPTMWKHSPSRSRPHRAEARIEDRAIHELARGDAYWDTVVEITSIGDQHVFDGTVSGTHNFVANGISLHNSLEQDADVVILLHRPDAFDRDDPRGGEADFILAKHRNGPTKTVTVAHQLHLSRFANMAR

[8] = target: Peroxisome proliferator-activated receptor gamma/Nuclear receptor corepressor 2 (Homo sapiens, UniProt P37231+Q9Y618); assay type: functional
[9] = target: Photoreceptor-specific nuclear receptor (Homo sapiens, UniProt Q9Y5X4); assay type: functional;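 also: potency for compounds that break the NR2E3 corepressor complex and count as activators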
Photoreceptor-specific nuclear receptor, sequence (Q9Y5X4 whole entry): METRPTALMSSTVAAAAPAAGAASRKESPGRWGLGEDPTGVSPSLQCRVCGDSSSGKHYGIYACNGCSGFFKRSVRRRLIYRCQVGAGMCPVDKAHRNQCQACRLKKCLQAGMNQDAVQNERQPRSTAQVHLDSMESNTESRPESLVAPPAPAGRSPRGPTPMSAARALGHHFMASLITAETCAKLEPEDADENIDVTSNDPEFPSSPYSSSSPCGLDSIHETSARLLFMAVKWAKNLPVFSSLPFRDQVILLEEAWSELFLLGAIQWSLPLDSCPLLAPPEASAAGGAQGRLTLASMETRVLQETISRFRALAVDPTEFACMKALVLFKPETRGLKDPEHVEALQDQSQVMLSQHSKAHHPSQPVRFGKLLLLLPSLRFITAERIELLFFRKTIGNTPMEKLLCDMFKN

Compound: Cc1ccc(/C=C/C(=O)NC(=S)Nc2ccc(S(=O)(=O)Nc3cc(C)on3)cc2)cc1
- IC50 [1]: > 55.7 µM (not active)
- EC50 (Streptokinase A): 27.1 µM (inconclusive)
- EC50 (Streptococcus): 62.4 µM (active)
- EC50 [2]: 9.56 µM (active)
- IC50 (Insulin-degrading enzyme): 9.71 µM (active)

Compound: O=C1c2ccccc2C(=O)N1Cc1ccc2c(c1)OCO2
- AC50 (HeLa): 42.5 µM (active)

Compound: O=C(Nc1ccc(S(=O)(=O)N2CCc3ccccc3C2)cc1)C1CCCO1 (configuration not stated)
- EC50 [3]: 3.27 µM (active)

Compound: COc1ccc(NC(=O)NNC(=O)CCc2ccc(O)c(O)c2)cc1OC
- IC50 (Aspartyl aminopeptidase): 2.51 µM (active)
- IC50 (Procathepsin L): > 59.6 µM (not active)

Compound: Cc1cccc(N2CCN(C(=O)c3cccc(N4C(=O)C5C6C=CC(C6)C5C4=O)c3)CC2)c1C (configuration not stated)
- IC50 [1]: 17.4 µM (not active)
- IC50 (Insulin-degrading enzyme): 6.73 µM (active)

Compound: CCCCCC(=O)NC(=S)NNC(=O)CC
- EC50 [4]: > 50 µM (active)

Compound: COc1cc(C(=O)Nc2ccc3c(c2)OCCO3)ccc1OC(C)C
- EC50 [4]: > 50 µM (active)

Compound: CN(Cc1ccccc1)C(=O)CCSc1nc(-c2ccc3c(c2)OCO3)cc(C(F)(F)F)n1
- EC50 [3]: 4.53 µM (active)
- IC50 [5]: > 20 µM (inactive)

Compound: CC1=NNC(=O)/C1=C\c1cn(-c2ccccc2)nc1-c1ccc(F)cc1
- EC50 (Protein RecA): 1.35 µM (active)
- IC50 (Aspartyl aminopeptidase): 0.71 µM (active)
- AC50 [6]: 6.52 µM (active)
- IC50 (Procathepsin L): > 59.6 µM (not active)
- AC50 [7]: 3.69 µM (active)

Compound: CCOc1ccccc1NC(=O)CSc1nc(N)c(C#N)cc1C#N
- IC50 [8]: 3.03 µM (active)
- IC50 [9]: > 39.8 µM (not active)
